Common to all, as to format: physicochemical
Data set [1] in a line: Storage stability in powder laundry detergent. Conditions: after one month. From the text:
(§1) The separate samples are then divided into portions.

Data set [2] is described as follows: Storage stability in soap. Conditions: stored in the dark for about one month at room temperature.
Excerpt: as §1
The soap formulation below can be prepared in accordance with generally known methods. The data refer to percentages by weight.
The soap formulations A and B were stored in the dark for about one month at room temperature.

Data set [3] in a line: Hydrolysis rate in 1% strength aqueous soap solution, SPME headspace analysis. Here is the method: To determine the hydrolysis rate, the depot preparation was added to a 1% strength aqueous soap solution, and the concentration of the depot preparation or of the free aldehyde was measured by SPME headspace analysis.

Bounds are passed on as bounds.

`CCCCCCC(OCCc1ccccc1)OC(C)=O` (centres unmarked) [Example 5, 1-(2-Phenylethoxy)heptyl Acetate] came in with a storage stability in data set [1] of 93%. Moreover, in data set [2], the “Storage stability [%]” value is recorded as 93% and the “storage stability relative to the corresponding aldehyde” value is recorded as “significantly greater storage stability”. Besides, in data set [3], the “time to complete hydrolysis” value is not above 5 min.
In data set [1], `OCCc1ccccc1` [Phenylethyl alcohol, 2-Phenylethanol] had a storage stability of 91%. Besides, the “Storage stability [%]” value in data set [2] was 91%.
On to `CCCCCCC=O` [Aldehyde C7, n-Heptanal], for which the storage stability in data set [1] was determined as 27%. Also, the “Storage stability [%]” value in data set [2] was found to be 27%.

These data come from US20030083376A1, “Depot preparations” (priority 2001, published 2003).
